Measured values as given in PMC8151276, “An Integrated Approach toward NanoBRET Tracers for Analysis of GPCR Ligand Engagement” (Molecules, 2021).

Experiments:
Format in all cases: binding
[1] = target: T1, CCR3 (Homo sapiens, UniProt P51677); test: NanoBRET screen HiBiT-CCR3 in HEK293
T1 construct: purchased Promega (in-house HiBiT-GPCR construct library, NanoBRET)
T1 sequence (P51677 1-355): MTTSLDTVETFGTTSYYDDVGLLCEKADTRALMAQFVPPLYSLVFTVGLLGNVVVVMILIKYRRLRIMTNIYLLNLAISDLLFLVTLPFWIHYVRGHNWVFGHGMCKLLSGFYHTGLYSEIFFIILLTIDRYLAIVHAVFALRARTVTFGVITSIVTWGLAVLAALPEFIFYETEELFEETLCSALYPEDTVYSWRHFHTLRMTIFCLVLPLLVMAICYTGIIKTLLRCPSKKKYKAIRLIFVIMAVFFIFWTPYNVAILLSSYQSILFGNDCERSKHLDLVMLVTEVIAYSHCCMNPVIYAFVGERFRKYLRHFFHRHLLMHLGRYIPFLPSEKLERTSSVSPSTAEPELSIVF
Protocol: (§1) Each tracer candidate was screened across the entire library of HiBiT-GPCR constructs using NanoBRET as the detection modality. As depicted in Figure 4A, the specificity of interactions was evaluated through decrease in BRET due to competitive displacement of a bound tracer by excess parental compound. Each tracer was analyzed for binding to each HiBiT-GPCR fusion in the absence and in the presence of competing parental compound. Briefly, HEK293 cells were transfected with HiBiT-GPCR constructs diluted into promoterless DNA to reduce expression and maximize translocation to the cell surface. Each tracer candidate was then screened at concentrations of 1 μM and 0.1 μM across cells expressing these fusions. Cells were treated for 1.5 h with tracer either alone or in the presence of 20 μM competing parental compound (i.e., control). BRET was measured upon addition of purified LgBiT and subsequent complementation with HiBiT genetically fused to a GPCR. The specificity of interactions was assessed through a decrease in BRET signal due to competitive displacement of the bound tracer. To further gauge the robustness of these interactions, the fold response over the control (i.e., BRETtracer/BRETcontrol) was calculated. We chose a 1.5-fold response, which translates to ≥7-fold signal over noise as the minimal threshold required to score an interaction as positive. […]. Below we highlight the screening results obtained for our exemplary fluorescent tracers based on Clozapine, Amitriptyline and AZD1283.
(§2) HiBiT-GPCR DNA constructs were diluted in 10 mM Tris pH 8 to a final concentration of 0.01 μg/μL, arrayed in 96-well plates and stored at −20 °C. For transfection, HEK293 cells were suspended in Opti-MEM (without phenol red) supplemented with 2% fetal bovine serum (Seradigm) and 100 units/mL penicillin–streptomycin (Gibco) at a final concentration of 220,000 cells/mL and dispensed into white 96-well plates at 90 μL/well. Subsequent transfections and screens were carried using an Agilent Bravo Automated Liquid Handling Platform. First, the 96-well HiBiT DNA arrays were diluted 25-fold in Opti-MEM (without serum or phenol red) to a final concentration of 0.0004 μg/μL and 20 μL of the diluted DNAs were transferred into new 96-well plates. Next, promoterless carrier DNA (1 μg/μL) was diluted 25-fold (0.04 μg/μL) and then dispensed into the diluted arrays at 20 μL/well. Following brief mixing, Viafect transfection reagent (Promega) diluted 16-fold into Opti-MEM was dispensed into the plates at 40 μL/well. After mixing by pipetting, plates were incubated for 10 min on the pipetting station deck. The DNA-transfection reagent complexes were then added to plates containing cells. To facilitate the screen, 10 μL of DNA-transfection reagent complexes were added in duplicates to the top 4 and bottom 4 rows, resulting in two identical 48-well arrays per plate. Plates with transfected cells were incubated for 18–20 h at 37 °C/5% CO2. A screen of each tracer across the entire library using two different concentrations requires duplicate plates of transfected cells. Depending on the number of tracers being screened, transfections can be scaled up using the same ratios. The next day, for each tracer, four 20× screening solutions in tracer dilution buffer (Promega) were prepared: two duplicates at final concentration of 20 μM and two duplicates at a final concentration of 2 μM. A competing unmodified compound was added to one of each duplicate at a final concentration of 400 μM. The four resulting solutions were diluted 4-fold in Opti-MEM without serum or phenol red to generate 5× solutions (5 µM and 0.5 µM tracer +/− 100 μM competing compound). To screen the library, a BioTek MultiFlo FX liquid dispenser was used to dispense 22.5 µL of tracer solution to the top 4 rows and 22.5 µL tracer + competing compound solution to the 4 bottom rows. Plates were briefly mixed on an orbital shaker and incubated for 1.5 h at room temperature. […]

[2] = target: T2, HTR1B (Homo sapiens, UniProt P28222); test: NanoBRET screen HiBiT-HTR1B in HEK293
T2 construct: purchased Promega (in-house HiBiT-GPCR construct library, NanoBRET)
Protocol: as §1, §2

[3] = target: T3, LGR6 (Homo sapiens, UniProt Q9HBX8); test: NanoBRET screen HiBiT-LGR6 in HEK293
T3 construct: purchased Promega (in-house HiBiT-GPCR construct library, NanoBRET)
T3 sequence (Q9HBX8 25-967): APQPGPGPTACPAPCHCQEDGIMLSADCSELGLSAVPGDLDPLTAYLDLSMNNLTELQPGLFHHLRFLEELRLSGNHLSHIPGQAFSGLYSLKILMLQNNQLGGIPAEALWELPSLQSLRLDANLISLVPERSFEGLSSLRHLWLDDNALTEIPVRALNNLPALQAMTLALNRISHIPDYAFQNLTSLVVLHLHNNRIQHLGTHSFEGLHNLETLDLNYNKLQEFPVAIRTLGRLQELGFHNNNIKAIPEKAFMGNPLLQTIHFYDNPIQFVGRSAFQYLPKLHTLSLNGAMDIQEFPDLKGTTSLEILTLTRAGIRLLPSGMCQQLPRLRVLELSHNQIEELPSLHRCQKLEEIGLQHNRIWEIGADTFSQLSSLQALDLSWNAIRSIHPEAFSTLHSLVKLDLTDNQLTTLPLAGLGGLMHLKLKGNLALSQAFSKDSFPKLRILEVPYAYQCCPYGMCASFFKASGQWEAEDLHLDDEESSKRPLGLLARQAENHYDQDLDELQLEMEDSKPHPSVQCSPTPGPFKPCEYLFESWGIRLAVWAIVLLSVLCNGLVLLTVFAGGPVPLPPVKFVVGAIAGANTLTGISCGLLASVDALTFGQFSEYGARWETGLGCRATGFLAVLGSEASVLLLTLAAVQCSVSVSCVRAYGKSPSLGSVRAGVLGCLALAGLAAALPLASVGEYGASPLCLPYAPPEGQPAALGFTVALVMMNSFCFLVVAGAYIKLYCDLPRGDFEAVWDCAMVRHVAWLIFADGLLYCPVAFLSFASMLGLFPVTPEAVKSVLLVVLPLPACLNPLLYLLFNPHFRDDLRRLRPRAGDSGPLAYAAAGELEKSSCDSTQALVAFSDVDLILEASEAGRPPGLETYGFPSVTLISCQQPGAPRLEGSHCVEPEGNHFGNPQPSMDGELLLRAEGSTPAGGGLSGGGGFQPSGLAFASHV
Protocol: as §1, §2

[4] = target: T4, LTB4R (Homo sapiens, UniProt Q15722); test: NanoBRET screen HiBiT-LTB4R in HEK293
T4 construct: purchased Promega (in-house HiBiT-GPCR construct library, NanoBRET)
Protocol: as §1, §2

[5] = tracer at 1μM, listed as amitriptyline-b-2-NB590
[6] = tracer at 0.1μM, listed as amitriptyline-b-2-NB590

T4 sequence (Q15722 whole entry): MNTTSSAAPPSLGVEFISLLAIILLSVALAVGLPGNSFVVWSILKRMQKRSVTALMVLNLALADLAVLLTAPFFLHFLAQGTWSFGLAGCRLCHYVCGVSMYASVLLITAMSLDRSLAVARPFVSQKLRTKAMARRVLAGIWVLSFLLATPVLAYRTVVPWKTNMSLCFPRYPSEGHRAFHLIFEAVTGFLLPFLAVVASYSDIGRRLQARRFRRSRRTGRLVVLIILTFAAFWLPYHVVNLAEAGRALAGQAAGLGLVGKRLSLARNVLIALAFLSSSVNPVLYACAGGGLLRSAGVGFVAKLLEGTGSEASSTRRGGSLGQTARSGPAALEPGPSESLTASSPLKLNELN
T2 sequence (P28222 whole entry): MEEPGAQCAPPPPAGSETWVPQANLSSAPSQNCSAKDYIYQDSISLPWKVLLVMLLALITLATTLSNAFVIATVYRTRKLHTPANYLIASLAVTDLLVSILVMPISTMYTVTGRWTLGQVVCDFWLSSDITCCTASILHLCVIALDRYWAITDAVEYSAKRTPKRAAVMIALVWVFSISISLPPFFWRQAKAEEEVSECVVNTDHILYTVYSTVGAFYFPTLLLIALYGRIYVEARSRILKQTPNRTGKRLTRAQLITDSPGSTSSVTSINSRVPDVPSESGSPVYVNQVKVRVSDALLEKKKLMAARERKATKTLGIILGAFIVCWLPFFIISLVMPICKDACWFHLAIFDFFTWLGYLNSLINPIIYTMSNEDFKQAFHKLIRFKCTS

Structure (SMILES)	NanoBRET Fold Response ([1]; CCR3, tracer 0.1μM)	NanoBRET Fold Response ([1]; CCR3, tracer 1μM)	NanoBRET Fold Response ([2]; HTR1B, tracer 0.1μM)	NanoBRET Fold Response ([2]; HTR1B, tracer 1μM)	NanoBRET Fold Response ([3]; LGR6, tracer 0.1μM)	NanoBRET Fold Response ([3]; LGR6, tracer 1μM)	NanoBRET Fold Response ([4]; LTB4R, tracer 0.1μM)	NanoBRET Fold Response ([4]; LTB4R, tracer 1μM)	NanoBRET Fold Response ([1]; tracer at 0.1μM)	NanoBRET Fold Response [1, 5]	NanoBRET Fold Response [2, 6]	NanoBRET Fold Response [2, 5]	NanoBRET Fold Response [3, 6]	NanoBRET Fold Response [3, 5]	NanoBRET Fold Response [4, 5]
Cc1cc2c(s1)Nc1ccccc1N=C2N1CCN(CCCNC(=O)CCOCCOCCOCCOCCNC(=O)CCc2ccc3n2[B-](F)(F)[N+]2=C(c4ccc[nH]4)C=CC2=C3)CC1 [Olanzapine-a-2-NB590]	1.19	1.22	2.53	2.81	1.09	1.22	1.02	1.03							
N#CN=C(NCCCOc1cccc(CN2CCCCC2)c1)NCCNC(=O)CCOCCOCCOCCOCCNC(=O)CCc1ccc2n1[B-](F)(F)[N+]1=C(c3ccc[nH]3)C=CC1=C2 [Aminopotentidine-2-NB590]	0.95	0.89	0.98	1.03	0.96	0.88	1.03	0.99							
Cc1nc2n(c(=O)c1CCN1CCC(c3noc4cc(F)ccc34)CC1)CCCC2OC(=O)NCCOCCOCCOCCOCCNC(=O)CCc1ccc2n1[B-](F)(F)[N+]1=C(c3ccc[nH]3)C=CC1=C2 (stereo not shown) [Risperidone-2-NB590]	1.06	1.27	3.33	2.70	1.04	1.02	1.03	1.00							
CN(C)CCC=C1c2ccccc2CCc2ccc(C(=O)NCCNC(=O)CCOCCOCCOCCOCCNC(=O)CCc3ccc4n3[B-](F)(F)[N+]3=C(c5ccc[nH]5)C=CC3=C4)cc21 [Amitriptyline-b-2-NB590]									0.90	1.27	1.76	1.34	0.92	1.14	1.02
